According to ChEMBL document CHEMBL1125324, “Development of a novel class of cyclic hexapeptide oxytocin antagonists based on a natural product” (J Med Chem, 1992):
≈ marks a conversion by molar mass, not a printed value. *1 amine or outer side, *2 acyl side, *3 side chain or, on linkers, in order; H or OH if unused. Where a SMILES comes first, the peptide text is derived from it. [ ]: non-standard residue; d: D form. X1 = C=CCN([C@H](Cc1ccccc1)C(=O)[*:2])[*:1]; Piz(1,6-dehydro) = O=C(O)[C@@H]1CCC=NN1; dPiz(1,6-dehydro) = O=C(O)[C@H]1CCC=NN1; d1Nal = N[C@H](Cc1cccc2ccccc12)C(=O)O; d2Nal = N[C@H](Cc1ccc2ccccc2c1)C(=O)O; dNMeH = CN[C@H](Cc1c[nH]cn1)C(=O)O; dNMeF = CN[C@H](Cc1ccccc1)C(=O)O; Pip = O=C(O)[C@@H]1CCCCN1; dPip = O=C(O)[C@H]1CCCCN1; NMeA = CN[C@@H](C)C(=O)O; Nle = CCCC[C@H](N)C(=O)O; Orn = NCCC[C@H](N)C(=O)O; dNMeA = CN[C@H](C)C(=O)O

What was measured:
Oxytocin receptor = target: T1, Oxytocin receptor (Rattus norvegicus, UniProt P70536); assay: Concentration required to displace 50% of [3H]oxytocin from rat uterine receptor.
T1 sequence (P70536 whole entry): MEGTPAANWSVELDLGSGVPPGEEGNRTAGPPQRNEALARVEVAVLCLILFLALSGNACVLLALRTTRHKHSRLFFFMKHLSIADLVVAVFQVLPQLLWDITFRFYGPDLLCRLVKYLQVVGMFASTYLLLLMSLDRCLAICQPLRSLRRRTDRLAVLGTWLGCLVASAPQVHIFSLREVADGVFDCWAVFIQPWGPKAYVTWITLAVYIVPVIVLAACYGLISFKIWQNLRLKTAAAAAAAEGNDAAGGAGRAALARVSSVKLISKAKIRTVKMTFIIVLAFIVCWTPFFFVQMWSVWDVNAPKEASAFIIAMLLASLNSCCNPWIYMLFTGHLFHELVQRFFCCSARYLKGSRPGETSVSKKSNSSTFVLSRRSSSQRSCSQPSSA

Vasopressin V1a receptor = Vasopressin V1a receptor (Rattus norvegicus, UniProt P30560); assay: Concentration required to displace 50% of [3H]arginine vasopressin from rat liver arginine vasopressin 1A (AVP-V1a) site.
Vasopressin V2 receptor = Vasopressin V2 receptor (Rattus norvegicus, UniProt Q00788); assay: Inhibition of [3H]arginine vasopressin binding to AVP-V2 site in rat kidney medulla.; assay type: tissue-based
[1] = target: Vasopressin V1a receptor (Rattus norvegicus) (UniProt P30560); assay: Displacement of [3H]arginine vasopressin from rat liver (AVP-V1a site) at 10 uM
[2] = target: Vasopressin V2 receptor (Rattus norvegicus) (UniProt Q00788); assay: Displacement of [3H]arginine vasopressin from rat kidney medullary (AVP-V2 site) at 10 uM; assay type: tissue-based
Rattus norvegicus = assay: Dose required for 50% reduction of the contractile response of the uterus to OT (1 ug/kg, iv bolus) in DES-pretreated rats; assay type: functional
[3] = Aqueous solubility was determined; assay type: physicochemical

Chain of Vasopressin V1a receptor (P30560 whole entry): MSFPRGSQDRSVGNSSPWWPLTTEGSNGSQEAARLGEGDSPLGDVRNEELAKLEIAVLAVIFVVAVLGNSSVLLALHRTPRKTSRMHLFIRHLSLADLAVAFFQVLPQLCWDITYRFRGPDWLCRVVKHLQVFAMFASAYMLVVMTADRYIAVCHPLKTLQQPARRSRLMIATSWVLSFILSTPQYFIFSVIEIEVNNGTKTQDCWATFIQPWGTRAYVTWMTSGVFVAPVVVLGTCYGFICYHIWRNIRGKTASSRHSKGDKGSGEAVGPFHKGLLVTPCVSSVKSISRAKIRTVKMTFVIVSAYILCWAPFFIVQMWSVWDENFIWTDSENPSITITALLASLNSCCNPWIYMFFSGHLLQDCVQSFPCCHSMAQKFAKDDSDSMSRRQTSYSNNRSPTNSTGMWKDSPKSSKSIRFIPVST
Chain of Vasopressin V1a receptor (Rattus norvegicus) (P30560 whole entry, looked up): as the sequence (P30560 whole entry) above
Chain of Vasopressin V2 receptor (Q00788 whole entry): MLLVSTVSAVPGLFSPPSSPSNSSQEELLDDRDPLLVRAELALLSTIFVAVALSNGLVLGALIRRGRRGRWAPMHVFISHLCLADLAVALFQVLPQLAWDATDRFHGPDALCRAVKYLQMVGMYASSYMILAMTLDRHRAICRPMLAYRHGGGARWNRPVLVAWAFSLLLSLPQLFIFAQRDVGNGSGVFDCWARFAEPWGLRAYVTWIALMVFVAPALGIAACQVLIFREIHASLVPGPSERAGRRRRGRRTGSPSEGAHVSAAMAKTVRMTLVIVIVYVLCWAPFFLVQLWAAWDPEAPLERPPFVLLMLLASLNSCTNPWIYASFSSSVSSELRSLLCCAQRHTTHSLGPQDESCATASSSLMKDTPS
Chain of Vasopressin V2 receptor (Rattus norvegicus) (Q00788 whole entry): as above

SMILES | IC50 (Oxytocin receptor) | IC50 (Vasopressin V1a receptor) | IC50 (Vasopressin V2 receptor) | inhibition [1] | inhibition [2] | also measured
CC[C@H](C)[C@@H]1NC(=O)[C@@H](Cc2cccc3ccccc23)NC(=O)[C@@H]2CCCN2C(=O)[C@@H](Cc2cnc[nH]2)NC(=O)[C@@H]2CCCCN2C(=O)[C@H]2CCCCN2C1=O (cyclo(I[dPip][Pip][dH]P[d1Nal])) | 8.3 nM | 750 nM | 720 nM | – | – | –
CC[C@H](C)[C@@H]1NC(=O)[C@@H](Cc2c[nH]c3ccccc23)NC(=O)[C@@H]2CCCN2C(=O)[C@@H](Cc2c[nH]cn2)N(C)C(=O)[C@@H]2CCCCN2C(=O)[C@H]2CCCCN2C1=O (cyclo(I[dPip][Pip][dNMeH]P[dW])) | – | 14000 nM | – | – | – | –
CCCC[C@@H]1NC(=O)[C@@H](Cc2c[nH]c3ccccc23)NC(=O)[C@@H]2CCCN2C(=O)[C@@H](Cc2c[nH]cn2)NC(=O)[C@@H]2CCCCN2C(=O)[C@H]2CCCCN2C1=O (cyclo([Nle][dPip][Pip][dH]P[dW])) | – | 1300 nM | 1700 nM | – | – | –
C[C@@H]1NC(=O)[C@@H](Cc2ccccc2)NC(=O)[C@@H]2CCCN2C(=O)[C@H](Cc2ccccc2)N(C)C(=O)[C@@H]2CCCCN2C(=O)[C@H]2CCCCN2C1=O | – | – | – | 3% | 2% | –
CC[C@H](C)[C@@H]1NC(=O)[C@@H](Cc2ccccc2)NC(=O)[C@@H]2CCCN2C(=O)[C@H](Cc2ccccc2)N(C)C(=O)[C@H](C)N(C)C(=O)[C@H]2CCCCN2C1=O | – | – | – | 25% | 34% | –
CC[C@H](C)[C@@H]1NC(=O)[C@@H](Cc2cn(C)c3ccccc23)NC(=O)[C@@H]2CCCN2C(=O)[C@@H](Cc2cnc[nH]2)NC(=O)[C@@H]2CCCCN2C(=O)[C@H]2CCCCN2C1=O | 10 nM | 3700 nM | 1300 nM | – | – | –
CC[C@H](C)[C@@H]1NC(=O)[C@@H](Cc2ccccc2)NC(=O)[C@@H]2CCCN2C(=O)[C@@H](C)N(C)C(=O)[C@@H]2CCCCN2C(=O)[C@H]2CCCCN2C1=O (cyclo(I[dPip][Pip][dNMeA]P[dF])) | 1200 nM | – | – | 20% | 12% | –
CC[C@H](C)[C@H]1C(=O)N2CCCC[C@@H]2C(=O)N2CCCC[C@H]2C(=O)N(C)[C@H](Cc2ccccc2)C(=O)N2CCC[C@H]2C(=O)N[C@H](Cc2ccccc2)C(=O)N1C | 25000 nM | – | – | 18% | 19% | –
CC[C@H](C)[C@@H]1NC(=O)[C@@H](Cc2ccccc2)NC(=O)[C@@H]2CCCN2C(=O)[C@@H](Cc2ccccc2)N(C)C(=O)[C@@H]2CCCN2C(=O)[C@H]2CCCN2C1=O (cyclo([dNMeF]P[dF]I[dP]P)) | – | 3300 nM | 81000 nM | – | – | –
CC(C)C[C@@H]1NC(=O)[C@@H](Cc2c[nH]c3ccccc23)NC(=O)[C@@H]2CCCN2C(=O)[C@@H](Cc2c[nH]cn2)NC(=O)[C@@H]2CCCCN2C(=O)[C@H]2CCCCN2C1=O (cyclo(L[dPip][Pip][dH]P[dW])) | – | 3000 nM | 11000 nM | – | – | –
CC[C@H](C)[C@@H]1NC(=O)[C@@H](Cc2ccccc2)NC(=O)[C@@H]2CCCCN2C(=O)[C@@H](Cc2ccccc2)N(C)C(=O)[C@@H]2CCCCN2C(=O)[C@H]2CCCCN2C1=O | – | – | – | 51% | 48% | –
CC[C@H](C)[C@@H]1NC(=O)[C@@H](Cc2ccccc2)NC(=O)[C@@H]2CCCN2C(=O)[C@@H](Cc2ccccc2)NC(=O)[C@@H]2CCCCN2C(=O)[C@H]2CCCCN2C1=O (cyclo(I[dPip][Pip][dF]P[dF])) | 340 nM | – | 11000 nM | – | – | –
CC[C@H](C)[C@@H]1NC(=O)[C@@H](Cc2ccccc2)NC(=O)[C@@H]2CCCN2C(=O)[C@@H](CCCCN)NC(=O)[C@@H]2CCCCN2C(=O)[C@H]2CCCCN2C1=O (cyclo(I[dPip][Pip][dK]P[dF])) | 410 nM | 1100 nM | 7400 nM | – | – | –
CC[C@H](C)[C@@H]1NC(=O)[C@@H](Cc2ccccc2)NC(=O)[C@@H]2CCCN2C(=O)[C@@H](Cc2ccccc2)N(C)C(=O)[C@@H]2CCCCN2C(=O)[C@H]2CCCN2C1=O (cyclo(I[dP][Pip][dNMeF]P[dF])) | 540 nM | – | – | 23% | 43% | –
CC[C@H](C)[C@@H]1NC(=O)[C@@H](Cc2ccccc2)NC(=O)[C@@H]2CCCN2C(=O)[C@@H](Cc2ccccc2)N(C)C(=O)[C@@H]2CCCCN2C(=O)[C@H]2CCCCN2C1=O (cyclo(I[dPip][Pip][dNMeF]P[dF])) | 200 nM | 3200 nM | 3800 nM | – | – | –
CC[C@H](C)[C@@H]1NC(=O)[C@@H](Cc2c[nH]c3ccccc23)NC(=O)[C@@H]2CCCN2C(=O)[C@@H](Cc2c[nH]cn2)NC(=O)[C@@H]2CCCCN2C(=O)[C@H]2CCCCN2C1=O (cyclo(I[dPip][Pip][dH]P[dW])) | – | – | – | – | – | AD50 (Rattus norvegicus): 1.3 µg/kg
CC[C@H](C)[C@@H]1NC(=O)[C@@H](Cc2ccccc2)NC(=O)[C@H](C)N(C)C(=O)[C@@H](Cc2ccccc2)N(C)C(=O)[C@@H]2CCCCN2C(=O)[C@H]2CCCCN2C1=O (cyclo(I[dPip][Pip][dNMeF][NMeA][dF])) | 930 nM | – | – | 34% | 37% | –
C[C@@H]1NC(=O)[C@@H](Cc2ccccc2)NC(=O)[C@@H]2CCCN2C(=O)[C@@H](Cc2ccccc2)N(C)C(=O)[C@@H]2CCCCN2C(=O)[C@H]2CCCCN2C1=O | 30000 nM | – | – | – | – | –
C=CCN1C(=O)[C@@H]2CCCCN2C(=O)[C@H]2CCCCN2C(=O)[C@H]([C@@H](C)CC)NC(=O)[C@@H](Cc2ccccc2)NC(=O)[C@@H]2CCCN2C(=O)[C@H]1Cc1ccccc1 (cyclo(I[dPip][Pip][X1]P[dF])) | 190 nM | – | – | 45% | 77% | –
CC[C@H](C)[C@@H]1NC(=O)[C@@H](Cc2ccccc2)NC(=O)[C@@H]2CCCN2C(=O)[C@@H](Cc2ccccc2)N(C)C(=O)[C@@H]2CCCN2C(=O)[C@H]2CCCCN2C1=O | 670 nM | – | – | 33% | 39% | –

The next lines start with results.

IC50 (Oxytocin receptor) | IC50 (Vasopressin V1a receptor) | IC50 (Vasopressin V2 receptor) | inhibition [1] | inhibition [2] | SMILES | also measured
160 nM | 2000 nM | 1400 nM | – | – | CC[C@H](C)[C@@H]1NC(=O)[C@@H](Cc2ccccc2)NC(=O)[C@@H]2CCCN2C(=O)[C@@H](Cc2ccccc2)N(C)C(=O)[C@H](CCCCN)NC(=O)[C@H]2CCCCN2C1=O | –
220 nM | – | – | – | – | CC[C@H](C)[C@@H]1NC(=O)[C@@H](Cc2ccccc2)NC(=O)[C@@H]2CCCN2C(=O)[C@@H](Cc2ccccc2)N(C)C(=O)[C@H](Cc2cnc[nH]2)NC(=O)[C@H]2CCCCN2C1=O | –
1500 nM | – | – | 0% | 12% | CC[C@H](C)[C@@H]1NC(=O)[C@@H](Cc2ccccc2)NC(=O)[C@@H]2CCCN2C(=O)[C@@H](Cc2ccccc2)N(C)C(=O)[C@H](CC(=O)O)NC(=O)[C@H]2CCCCN2C1=O (cyclo(D[dNMeF]P[dF]I[dPip])) | –
25 nM | – | – | – | – | CC[C@H](C)[C@@H]1NC(=O)[C@@H](Cc2c[nH]c3ccccc23)NC(=O)[C@@H]2CCCN2C(=O)[C@@H](Cc2ccccc2)N(C)C(=O)[C@H](CCCN)NC(=O)[C@H]2CCC=NN2C1=O (cyclo(I[dPiz(1,6-dehydro)][Orn][dNMeF]P[dW])) | –
45 nM | 510 nM | 150 nM | – | – | CC[C@H](C)[C@@H]1NC(=O)[C@@H](Cc2cccc3ccccc23)NC(=O)[C@@H]2CCCN2C(=O)[C@@H](Cc2ccccc2)N(C)C(=O)[C@H](CCCCN)NC(=O)[C@H]2CCCCN2C1=O | –
18 nM | – | – | – | – | CC[C@H](C)[C@@H]1NC(=O)[C@@H](Cc2ccccc2)NC(=O)[C@@H]2CCCN2C(=O)[C@@H](Cc2ccccc2)N(C)C(=O)[C@@H]2CCC=NN2C(=O)[C@H]2CCC=NN2C1=O (cyclo(I[dPiz(1,6-dehydro)][Piz(1,6-dehydro)][dNMeF]P[dF])) | –
– | – | – | 66% | 65% | CC[C@H](C)[C@@H]1NC(=O)[C@@H](Cc2ccccc2)NC(=O)[C@@H]2CCCN2C(=O)[C@@H](Cc2ccccc2)N(C)C(=O)[C@H](Cc2c[nH]cn2)NC(=O)[C@H]2CCCCN2C1=O | –
15 nM | 3500 nM | 1200 nM | – | – | CC[C@H](C)[C@@H]1NC(=O)[C@@H](Cc2ccccc2)NC(=O)[C@@H]2CCCN2C(=O)[C@@H](Cc2ccccc2)N(C)C(=O)[C@@H]2CCCCN2C(=O)[C@H]2CCC=NN2C1=O (cyclo(I[dPiz(1,6-dehydro)][Pip][dNMeF]P[dF])) | –
1500 nM | – | – | 20% | 17% | CC[C@H](C)[C@@H]1NC(=O)[C@@H](Cc2ccccc2)NC(=O)[C@@H]2CCCN2C(=O)[C@@H](Cc2ccccc2)N(C)C(=O)[C@@H]2CCCCN2C(=O)[C@@H](C)N(C)C1=O (cyclo(I[dNMeA][Pip][dNMeF]P[dF])) | –
13 nM | 1300 nM | 110 nM | – | – | CC[C@H](C)[C@@H]1NC(=O)[C@@H](Cc2ccc3ccccc3c2)NC(=O)[C@@H]2CCCN2C(=O)[C@@H](Cc2ccccc2)N(C)C(=O)[C@H](CCCCN)NC(=O)[C@H]2CCCCN2C1=O (cyclo(I[dPip]K[dNMeF]P[d2Nal])) | solubility [3]: 1700 µg/mL (≈ 2100 µM)
2700 nM | – | – | – | – | CC[C@H](C)[C@@H]1NC(=O)[C@@H](Cc2ccccc2)NC(=O)[C@@H]2CCCN2C(=O)[C@@H](Cc2ccccc2)N(C)C(=O)[C@H](C)N(C)C(=O)[C@H]2CCCCN2C1=O | –
